Measured values as given in PubChem BioAssay (NCI).
“And” between values parts separate entries of the source, which are not always exact repeats. Equal values may be shown once.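 Five concentrations, 48 hours, 96-well plates. GI50 is the concentration that inhibits growth by half. TGI: total growth inhibition.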 Where a SMILES comes first, the peptide text is derived from it. [ ]: non-standard residue; d: D form. The star is where a group is joined. ξ: configuration not given here. NMeN = CN[C@@H](CC(N)=O)C(=O)O; NMeV = CN[C@H](C(=O)O)C(C)C; ξNMeV = CNC(C(=O)O)C(C)C; Boc = CC(C)(C)OC(=O)*; ξNMeA = CNC(C)C(=O)O

Tests used:
Test in all cases: NCI-60 cell line screen, 48 h
[1] = test system: HT29 colon
[2] = test system: KM12 colon
[3] = test system: RPMI-8226 leukemia
[4] = test system: COLO 205 colon
[5] = test system: SF-295 CNS
[6] = test system: PC-3 prostate
[7] = test system: HCT-116 colon
[8] = test system: SF-539 CNS
[9] = test system: CAKI-1 renal
[10] = test system: EKVX NSCLC

SMILES	GI50 [1]	TGI [1] [µM]	GI50 [2]	TGI [2] [µM]	TGI [3] [µM]	TGI [4] [µM]	GI50 [5]	TGI [5] [µM]	TGI [6] [µM]	TGI [7]	TGI [8] [µM]	TGI [9] [µM]	GI50 [10]	TGI [10]	GI50 [3] [µM]	GI50 [4] [µM]	GI50 [6] [µM]	GI50 [7] [µM]	GI50 [8] [µM]	GI50 [9] [µM]
O=[N+]([O-])c1ccc(N=Nc2c(O)ccc3ccccc23)cc1	35.8 µM and > 100 µM	> 100	19.7 µM and > 100 µM	> 100	> 100	> 100	29.8 µM and > 100 µM	> 100	> 100	> 100 µM	> 100	> 100	28 µM and > 100 µM	> 100 µM						
COc1ccc2c(c1)CCc1[nH]c3ccccc3c1CCCC2		> 10		> 10	> 10	> 10		> 10	> 10	> 10 µM	> 10	> 10								
Cc1cc(-c2nnc(N)nc2-c2ccc(F)cc2)cc(Cl)n1	> 100 µM	> 100	> 100 µM	> 100	> 100	> 100	72.7 µM	> 100	> 100	> 100 µM	> 100	> 100	59.9 µM	> 100 µM	37.3	> 100	76.9	75.4	> 100	43.8
O=C([O][Hg][CH2]C1COCC([CH2][Hg][O]C(=O)c2ccccc2)O1)c1ccccc1 (configuration not stated)			16.6 µM	31.5	7.66	3.55	17.3 µM	35.7	32.4	2.93 µM	51.8	3.21	19.6 µM	37.4 µM	2.75	1.88	15.9	1.56	23.7	1.61
COC(=O)C(C)N(C)C(=O)[C@H](CC(N)=O)N(C)C(=O)[C@@H]1CCCN1C(=O)[C@H](C(C)C)N(C)C(=O)C(C(C)C)N(C)C(=O)[C@@H](NC(=O)OC(C)(C)C)C(C)C (some centres not stated) (Boc-V[ξNMeV][NMeV]P[NMeN][ξNMeA]-OMe)	> 100 µM	> 100		> 100	> 100	> 100	> 100 µM	> 100	50	50 µM and > 100 µM	> 100	> 100	16.9 µM	> 50 µM and 35.3 µM		34.9		39.3	> 100	> 100
Cc1occc1C(=S)Nc1ccc(Cl)c(/C=N/OC(C)C)c1		45		53.6	> 67.6	37		41.9	47.3	> 51.7 µM	32.9	40.9		59 µM						
CC(C)CNc1nc(-c2ccccc2)nc2ccccc12			12.7 µM	26.4	20.3	40.3	14.5 µM	28.9	34.8	26.7 µM		29.8			4.31	14.8	17.1	13.8		15.4
